Measurements reported in patent US20230248695A1, “COMBINATIONS OF CANCER THERAPEUTICS” (Merck Patent GmbH, priority 2020, published 2023).
Entries after “also recorded” stand apart in the source; their conditions may differ.

Experiments:
[1] = clinical trials; cited from earlier work
[2] = test system: RCC patient derived xenografts (PDX); experiment: In vivo efficacy in sixteen RCC patient derived tumor xenograft models (PDX); design: species or system female NMRI nu/nu mice (human tumor xenografts); details: 16 s.c. RCC PDX models, n = 5 per group; p.o. up to 70 days; Compound A 100 mg/kg QD, axitinib 4 mg/kg BID, cabozantinib 10 mg/kg QD; progression = RTV 173%
Description: All experiments and protocols were approved by animal welfare body and local authorities, and were conducted according to all applicable international, national and local laws and guidelines. Only animals with unobjectionable health were selected to enter testing procedures. The animals (female NMRI nu/nu mice (NMRI-Foxn1^nu); Envigo RMS GmbH, Netherlands) were delivered at the age of four to six weeks and were used for experiments after at least one week of acclimatization. Animals were arbitrarily numbered during tumor implantation using radio frequency identification transponders. Each cage was labeled with a record card indicating all relevant experimental details.
The tumor xenografts were derived from surgical specimens from human cancer patients. Following excision at surgery, tumor pieces were subcutaneously implanted into immunodeficient mice and are therefore referred to as patient-derived tumor xenografts (PDX). Establishment and characterization of the PDXs was performed following their primary implantation into immunodeficient mice (passage 1). The tumor xenografts were passaged until establishment of a stable growth pattern.
Axitinib: A dosing solution of 0.4 mg/ml for dosing at 4 mg/kg/dose was prepared daily by dissolving 6.4 mg dry matter in 16 ml vehicle and stirring for at least 30 min. If necessary, the solution was sonicated for 2 min.
Cabozantinib: A dosing solution of 1 mg/ml for dosing at 10 mg/kg/dose was prepared directly before administration by slowly adding 0.2 ml 100% propylene glycol to 12 mg cabozantinib. It was stirred vigorously on a magnetic stirrer until a fine suspension with clumps formed, followed by vortexing briefly for 15-20 s. A further 3.4 ml propylene glycol was added and the stirring and vortexing steps were repeated. Then 600 µl 100% Tween 80 was added while stirring continuously followed by vortexing briefly for 15-20 s. The solution was then sonicated for 10 min and 7.8 ml D5W was added while stirring slowly. At this stage the solution was clear with lots of air bubbles. Care was taken to exclude these when drawing the suspension into a syringe for administration of therapy.
The resulting white suspension was stirred for two hours on a magnetic stirrer with a hot plate (Phoenix Instruments, model RSM-10HS) at 50° C. The suspension was brought to room temperature and mixed well each time before transferring to a syringe for dosing.
Tumor cell inoculation: Tumor fragments were obtained from xenografts in serial passage in nude mice. After removal from donor mice, tumors were cut into fragments (3-4 mm edge length) and placed in PBS containing 10% penicillin/streptomycin. Recipient animals were anesthetized by inhalation of isoflurane and received unilateral or bilateral tumor implants subcutaneously in the flank.
Randomization: Animals and tumor implants were monitored daily until solid tumor growth was detectable in a sufficient number of animals. At randomization, the volume of growing tumors was determined. […] Animals not used for experiments where available were used as satellite animals for PD sampling. The day of randomization was designated as day 0 of the experiment. The time from implantation to randomization at a standard tumor volume is expressed in days as “Induction time (IT)”. Induction times of tumors are routinely recorded, and a median IT is calculated for characterization purposes.
Tumor measurements and calculations: Tumor length (L) and width (W) were measured twice weekly by calipers. The tumor volume was calculated using the formula L×W^2/2. Relative volumes of individual tumors (individual RTVs) for Day x were calculated by dividing the absolute individual tumor volume on Day x (Tx) by the absolute individual tumor volume of the same tumor on the day of randomization (Tr) multiplied by 100%.

Compound: CO[C@@H]1[C@H](OC(=O)/C=C/C=C/C=C/C=C/C(=O)O)CC[C@]2(CO2)[C@H]1[C@@]1(C)O[C@@H]1CC=C(C)C [fumagillin]
- neurotoxicity [1]: pronounced neurotoxicity

Compound: O=C(NCc1cc(F)cc(F)c1)[C@@]1(O)CCN(c2ccc3[nH]ccc3c2)C1=O [Compound A, (S)-3-Hydroxy-1-(1H-indol-5-yl)-2-oxo-pyrrolidine-3-carboxylic acid 3,5-difluoro-benzylamide]
- tumor growth / tumor progression under monotherapy treatment [2]: progressed under monotherapy treatment; also recorded: did not strongly inhibit tumor growth, and tumors progressed under treatment

Compound: COc1cc2nccc(Oc3ccc(NC(=O)C4(C(=O)Nc5ccc(F)cc5)CC4)cc3)c2cc1OC [cabozantinib, N-{4-[(6,7-dimethoxyquinolin-4-yl)oxy]phenyl}-N′-(4-fluorophenyl)cyclopropane-1,1-dicarboxamide]
- tumor growth / tumor progression under monotherapy treatment [2]: progressed under monotherapy treatment; also recorded: did not strongly inhibit tumor growth, and tumors progressed under treatment

Compound: CNC(=O)c1ccccc1Sc1ccc2c(/C=C/c3ccccn3)n[nH]c2c1 [axitinib, N-methyl-2-({3-[(1E)-2-(pyridin-2-yl)ethenyl]-1H-indazol-6-yl}sulfanyl)benzamide]
- tumor growth / tumor progression under monotherapy treatment [2]: progressed under monotherapy treatment; also recorded: did not strongly inhibit tumor growth, and tumors progressed under treatment
